The results in this text go back to patent EP0877022A1, “Synthesis of the sulfonylpyrimidine derivatives with anticancer activity” (Herbos d.d., priority 1997, dated 1998).

What is called inhibition is the share of the control response that was lost under treatment.

Holding throughout (assay type): cell-based
The subject of experiment [1] is human cervix carcinoma (HeLa). Nature of the experiment: Growth inhibitory effects on HeLa cells (MTT staining). The conditions noted are these: concentration 10^-5 M, read-out: inhibition of cell growth. On the procedure: (§1) Cell lines. Human tumor pancreatic carcinoma cells (MiaPaCa 2), laryngeal carcinoma (Hep 2), human cervical carcinoma (HeLa) and normal human fibroblasts (Hef 2) were grown as monolayers at 37 °C in a humidified atmosphere with 5% CO2 in DMEM supplemented with 10% fetal calf serum, 2 mM glutamine, 100 U/ml penicillin and […] streptomycin.
(§2) Cell Cytotoxicity. To the purpos of the experiments the cells ([…]; 2x10^4 cells/ml) were plated onto 96-microwell plates. After 24 hours, test compounds at different concentrations (10^-4-10^-8 M), were added to the cells. Three days later, cell viability was determined by […]. The control cells were grown under same conditions without addition of test compounds. […] This method depends on the conversion of a water-soluble tetrazolium salt (MTT) to a purple colored formazan precipitate. The reaction affected by dehydrogenase enzymes active only in living cells. Tests were carried out in 96-well microculture plates. 10^4 viable tumor cells per well at 4 h incubation time 20 µg MTT7100 µl total medium volume. Formazan crystals were dissolved in DMSO and the plates were immediately measured on a microculture plate reader at 540 nm.

Experiment [2] deals with human tumor pancreatic carcinoma (MiaPaCa 2). Briefly: Growth inhibitory effects on MiaPaCa 2 cells (MTT staining). The conditions noted are these: MIA PaCa-2, concentration 10^-5 M, read-out: inhibition of cell growth. On the procedure: as §1, §2
Experiment [3] relates to laryngeal carcinoma (Hep 2). Briefly: Growth inhibitory effects on Hep 2 cells (MTT staining). The conditions noted are these: Homo sapiens, concentration 10^-5 M, read-out: inhibition of cell growth. On the procedure:
as §1, §2

The subject of experiment [4] is normal human fibroblasts (Hef 2). Briefly: Growth inhibitory effects on normal Hef 2 fibroblasts (MTT staining). The conditions noted are these: Fibroblast, Hef 2 normal cells, concentration 10^-5 M, read-out: inhibition of cell growth. On the procedure: as §1, §2

Where two headings read alike, the source gives them in different places.

As to `Cc1ccc(S(=O)(=O)n2cc(Br)c(=O)[nH]c2=O)cc1` [compound 2], the inhibition at 10 µM in experiment [1] was 85%; in experiment [2], 80%; in experiment [3] (Hep 2) it was 20%.
In the case of `Cc1ccc(S(=O)(=O)n2ccc(N)nc2=O)cc1` [compound 4], the inhibition at 10 µM in experiment [1] turned out to be 85%; in experiment [4], 20%; in experiment [2] it was 65%; in experiment [3] (HEp-2, Hep 2), 20%.
